According to patent US8129380B2, “Phthalazinone derivatives” (AstraZeneca AB, priority 2008, dated 2012):

Assays:
HeLa cells = test: Potentiation Factor (PF50): MMS growth inhibition, SRB assay; type: cell-based; conditions: MMS 0-10 μg/ml, ratio IC50 control / IC50 + inhibitor; for PF50 (30 nM): PARP inhibitor at 30 nM; for PF50 (200 nM): PARP inhibitor at 200 nM
Description: The Potentiation Factor (PF50) for compounds is calculated as a ratio of the IC50 of control cell growth divided by the IC50 of cell growth+PARP inhibitor. Growth inhibition curves for both control and compound treated cells are in the presence of the alkylating agent methyl methanesulfonate (MMS). The test compounds were used at a fixed concentration of 0.2 micromolar. The concentrations of MMS were over a range from 0 to 10 μg/ml.
2,000 HeLa cells were seeded into each well of a flat-bottomed 96-well microtiter plate in a volume of 100 μl and incubated for 6 hours at 37° C. Cells were either replaced with media alone or with media containing PARP inhibitor at a final concentration of 30 nM or 200 nM. […] Cells treated with PARP inhibitor alone were used to assess the growth inhibition by the PARP inhibitor.
Cells were left for a further 16 hours before replacing the media and allowing the cells to grow for a further 72 hours at 37° C. The media was then removed and the cells fixed with 100 μl of ice cold 10% (w/v) trichloroacetic acid. The plates were incubated at 4° C. for 20 minutes and then washed four times with water. Each well of cells was then stained with 100 μl of 0.4% (w/v) SRB in 1% acetic acid for 20 minutes before washing four times with 1% acetic acid. Plates were then dried for 2 hours at room temperature. The dye from the stained cells was solubilized by the addition of 100 μl of 10 mM Tris Base into each well.

[1] = molecular target: T1, P-glycoprotein (KBA1 cells) (Homo sapiens, UniProt P08183); test: P-gp substrate activity, Dose Modification Ratio with/without Verapamil, SRB assay; type: in vitro ADME; conditions: IC50 without Verapamil / IC50 with 20 μM Verapamil, 5 days
T1 construct: Cells from the Hela cell line known as KBA1, which expressed high P-glycoprotein; endogenous in cells; host or cells: KBA1 (HeLa-derived) cells; matched non-P-gp line KB31
Description: Cells from the Hela cell line known as KBA1, which expressed high P-glycoprotein (ABC1a and ABC1b transporter glycoproteins also known as MDR1a and MDR1b) and the matched non-P-glycoprotein expressing line known as KB31, were seeded onto 96 well tissue culture plates with 80 μl per well of 1.00×10^4 cells/ml=800 cells/well [DMEM, 10% FBS, PSG] and left to adhere for 4 hours. After the incubation period 10 μl per well of 200 μM Verapamil (giving a final conc. of 20 μM) a known inhibitor of P-gp or vehicle media were added to various wells of the cell plates. The 96 well plates were left in the incubator for 1 hour prior to 10 μl of test compound (or the known substrate Etoposide as a reference control) or 10 μl PBS/1% DMSO vehicle (control wells) being added into either Verapamil containing or media control wells. […]
The cell plates were then incubated for 5 days prior to cell growth being assessed using the Sulforhodamine B (SRB) assay as described previously. The P-gp substrate activity for each compound was calculated using the cell growth activity of the tests compounds on the KBA1 cells in the presence or absence (control wells) of Verapamil. The Dose Modification Ratio (DMR) is calculated from the KBA1 where for each test compound a ratio of the IC50 of the compound in the absence of Verapamil is divided by the IC50 of cell growth in the presence of Verapamil. […]

[2] = Solubility in 0.1 M phosphate buffer; type: physicochemical; conditions: pH 7.4, 24 hours, 25° C.
Description: The solubility of the test compounds was measured following a method described in Leach, A., et al., J Med Chem (2006), 49(23), 6672-6682:
Solubility values are determined from agitation of compounds in 0.1 M phosphate buffer at pH 7.4 for 24 hours at 25° C. The supernatant is separated from undissolved material by double centrifugation and subsequently analysed and quantified against a standard of known concentration in DMSO using generic HPLC-UV methodology coupled with mass spectral peak identification.

T1 sequence (P08183 whole entry): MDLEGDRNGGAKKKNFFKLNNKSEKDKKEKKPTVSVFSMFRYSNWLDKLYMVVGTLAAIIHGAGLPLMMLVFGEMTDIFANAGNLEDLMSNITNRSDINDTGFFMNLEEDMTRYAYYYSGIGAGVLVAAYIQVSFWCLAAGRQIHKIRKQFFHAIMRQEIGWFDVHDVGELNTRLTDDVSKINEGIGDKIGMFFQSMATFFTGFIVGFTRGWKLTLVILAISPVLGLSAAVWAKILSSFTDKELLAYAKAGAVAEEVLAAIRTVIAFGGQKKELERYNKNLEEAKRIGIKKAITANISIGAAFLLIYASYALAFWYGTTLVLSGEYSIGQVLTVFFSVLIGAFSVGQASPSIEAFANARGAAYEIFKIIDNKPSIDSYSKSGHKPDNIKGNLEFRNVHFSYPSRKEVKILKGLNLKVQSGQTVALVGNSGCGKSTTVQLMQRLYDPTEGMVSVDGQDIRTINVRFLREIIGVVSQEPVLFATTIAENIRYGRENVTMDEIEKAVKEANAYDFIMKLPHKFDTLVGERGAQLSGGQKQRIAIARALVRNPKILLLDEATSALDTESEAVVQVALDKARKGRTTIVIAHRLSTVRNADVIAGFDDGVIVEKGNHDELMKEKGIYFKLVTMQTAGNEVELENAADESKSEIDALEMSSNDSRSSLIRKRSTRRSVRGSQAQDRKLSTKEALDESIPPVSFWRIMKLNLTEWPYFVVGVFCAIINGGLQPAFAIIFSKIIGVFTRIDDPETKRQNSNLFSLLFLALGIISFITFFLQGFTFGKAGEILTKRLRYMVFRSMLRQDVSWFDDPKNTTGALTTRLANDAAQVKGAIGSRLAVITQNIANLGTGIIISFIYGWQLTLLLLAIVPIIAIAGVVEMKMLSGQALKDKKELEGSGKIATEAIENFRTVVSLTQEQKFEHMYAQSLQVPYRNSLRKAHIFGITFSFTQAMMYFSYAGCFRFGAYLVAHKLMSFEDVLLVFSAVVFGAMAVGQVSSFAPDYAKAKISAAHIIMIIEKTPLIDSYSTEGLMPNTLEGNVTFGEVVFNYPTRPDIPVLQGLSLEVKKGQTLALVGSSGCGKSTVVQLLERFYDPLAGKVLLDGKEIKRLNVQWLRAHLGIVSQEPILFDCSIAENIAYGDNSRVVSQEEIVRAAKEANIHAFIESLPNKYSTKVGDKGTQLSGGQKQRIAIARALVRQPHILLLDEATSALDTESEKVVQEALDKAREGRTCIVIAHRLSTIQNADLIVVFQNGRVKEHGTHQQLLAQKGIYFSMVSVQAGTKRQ

COC1CCN(C(=O)c2cc(Cc3n[nH]c(=O)c4ccccc34)ccc2F)CC1 [Compound 2b, 4-(4-fluoro-3-(4-methoxypiperidine-1-carbonyl)benzyl)phthalazin-1(2H)-one]
PF50 (30 nM) (HeLa cells): 3.0 | PF50 (200 nM) (HeLa cells): 15 | Dose Modification Ratio (DMR) [1]: 1.3 | solubility [2]: 1070 µmol

CCOC1CCN(C(=O)c2cc(Cc3n[nH]c(=O)c4ccccc34)ccc2F)CC1 [Compound 2f, 4-(3-(4-ethoxypiperidine-1-carbonyl)-4-fluorobenzyl)phthalazin-1(2H)-one]
PF50 (30 nM) (HeLa cells): 14.1 | PF50 (200 nM) (HeLa cells): 25 | Dose Modification Ratio (DMR) [1]: 1.0 | solubility [2]: 211 µmol

CCOC1CCN(C(=O)c2cc(Cc3n[nH]c(=O)c4cccc(Cl)c34)ccc2F)CC1 [Compound 104b, 5-chloro-4-(3-(4-ethoxypiperidine-1-carbonyl)-4-fluorobenzyl)phthalazin-1(2H)-one]
PF50 (30 nM) (HeLa cells): 2.2

O=C(COC1CCN(C(=O)c2cc(Cc3n[nH]c(=O)c4ccccc34)ccc2F)CC1)N1CCCC1 [Compound 107, 4-(4-fluoro-3-(4-(2-oxo-2-(pyrrolidin-1-yl)ethoxy)piperidine-1-carbonyl)benzyl)phthalazin-1(2H)-one]
PF50 (30 nM) (HeLa cells): 1.7

O=C(COC1CCN(C(=O)c2cc(Cc3n[nH]c(=O)c4ccccc34)ccc2F)CC1)N1CCCCC1 [Compound 113, 4-(4-fluoro-3-(4-(2-oxo-2-(piperidin-1-yl)ethoxy)piperidine-1-carbonyl)benzyl)phthalazin-1 (2H)-one]
PF50 (30 nM) (HeLa cells): 5.8 | PF50 (200 nM) (HeLa cells): 23.1

COC1CCN(C(=O)c2cccc(Cc3n[nH]c(=O)c4cccc(Cl)c34)c2)CC1 [Compound 119a, 5-chloro-4-(3-(4-methoxypiperidine-1-carbonyl)benzyl)phthalazin-1(2H)-one]
PF50 (30 nM) (HeLa cells): 1.0

CCOC1CCN(C(=O)c2cccc(Cc3n[nH]c(=O)c4cccc(Cl)c34)c2)CC1 [Compound 119b, 5-chloro-4-(3-(4-ethoxypiperidine-1-carbonyl)benzyl)phthalazin-1(2H)-one]
PF50 (30 nM) (HeLa cells): 1.2

COc1cccc2c(=O)[nH]nc(Cc3ccc(F)c(C(=O)N4CCC(OC)CC4)c3)c12 [Compound 126a, 4-(4-fluoro-3-(4-methoxypiperidine-1-carbonyl)benzyl)-5-methoxyphthalazin-1(2H)-one]
PF50 (30 nM) (HeLa cells): 11.0

CCOC1CCN(C(=O)c2cc(Cc3n[nH]c(=O)c4cccc(OC)c34)ccc2F)CC1 [Compound 126b, 4-(3-(4-ethoxypiperidine-1-carbonyl)-4-fluorobenzyl)-5-methoxyphthalazin-1(2H)-one]
PF50 (30 nM) (HeLa cells): 7.4

CCOC1CCN(C(=O)c2cc(F)cc(Cc3n[nH]c(=O)c4cccc(Cl)c34)c2)CC1 [Compound 129a, 5-chloro-4-(3-(4-ethoxypiperidine-1-carbonyl)-5-fluorobenzyl)phthalazin-1(2H)-one]
PF50 (30 nM) (HeLa cells): 1.0
